Tests used:
Type in all cases: cell-based
rCB2 = target: T1, rCB2 (Rattus norvegicus, UniProt Q9QZN9); assay: cAMP assay, rCB2 in Table 7, agonist/inverse agonist; settings: intracellular cAMP; + agonist, − inverse agonist
T1 sequence (Q9QZN9 1-360): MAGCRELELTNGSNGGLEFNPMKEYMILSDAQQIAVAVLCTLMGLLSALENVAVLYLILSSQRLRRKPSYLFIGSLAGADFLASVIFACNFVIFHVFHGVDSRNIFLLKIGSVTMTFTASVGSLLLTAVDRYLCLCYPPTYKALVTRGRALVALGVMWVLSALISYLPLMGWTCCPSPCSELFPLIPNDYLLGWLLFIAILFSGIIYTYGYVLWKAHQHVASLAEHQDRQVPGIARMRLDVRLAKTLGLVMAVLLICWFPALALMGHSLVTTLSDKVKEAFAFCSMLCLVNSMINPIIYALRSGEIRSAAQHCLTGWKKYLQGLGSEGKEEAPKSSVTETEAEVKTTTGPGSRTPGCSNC
Procedure: (§1) Receptor mediated responses were determined by measuring changes in intracellular cAMP using LANCE cAMP detection kit (cat #AD0264, PerkinElmer, Wellesley, Mass.) based on time-resolved fluorescence resonance energy transfer (TR-FRET). Changes in cAMP were determined in cells pre-incubated with IBMX (isobutyl methylxanthine) and prestimulated with NKH-477 (a water soluble forskolin derivative, cat #1603, Tocris, Ellisville, Mo.) to increase basal cAMP levels as detailed below.
(§2) On the day of the experiment, cells were spun at low speed for 5 min at room temperature. The supernatant was removed and cells were resuspended in stimulation buffer (Hanks Buffered Salt Solution/5 mM HEPES, containing 0.5 mM IBMX (cat #17018, Sigma) and 0.02% BSA (PerkinElmer, cat #CR84-100)). Cell clumps were removed by filtering through cell strainer 40 μm (BD Falcon, Discovery Labware, Bedford, Mass.) and diluted to 2×10^5 cells/mL. Antibody supplied with the LANCE cAMP immunoassay kit was then added according to the manufacturer's instructions. An aliquot of cells was taken for un-induced controls. To the remaining cells was added NKH-477 (a water soluble forskolin derivative, Tocris cat #1603) to a final concentration of 2-8 μM. Cells were then incubated for 30 min at room temperature prior to adding to Proxiplates containing test compounds (final DMSO concentration was less than 0.5%) with a Multidrop bulk dispenser, followed by a sixty minute incubation at room temperature. The response was stopped by addition of the detection mix supplied with the LANCE kit.
(§3) The reagents were allowed to equilibrate for three hours prior to reading on an Envision multi-mode detector (PerkinElmer). TR-FRET was measured using a 330-380 nm excitation filter, a 665 nm emission filter, dichroic mirror 380 nm and Z=1 mm.
(§4) Cyclic AMP concentrations in each well were back-calculated from a cAMP standard curve run concurrently during each assay. Each plate contained 16 wells of forskolin stimulated cells and 16 wells of forskolin plus CP55,940-treated. CP55,940-treated cells were treated with CP55,940 (Tocris cat. # 0949) at 1 μm and the maximal response was used as the full range (100%) standard. WIN55,212 (Tocris cat. # 1038) was used as an internal standard. Concentrations of cAMP were expressed as a percent of the difference of these two groups of wells. Concentration-response data including ECso (the concentration of compound producing 50% of the maximal response) and intrinsic activity (the percent maximal activation compared to full activation by CP55,940) were determined using a four-parameter non-linear regression algorithm (Xlfit equation 251, IDBS).

hCB1 = target: T2, hCB1 (Homo sapiens, UniProt P21554); assay: cAMP assay (LANCE TR-FRET) in CHO-K1 cells stably expressing hCB1, agonist/inverse agonist; settings: intracellular cAMP, CHO-K1 hCB1 cells prestimulated with NKH-477, + agonist, − inverse agonist; for EC50: read-out: hCB1 EC50 class
T2 construct: host or cells: CHO-K1
T2 sequence (P21554 whole entry): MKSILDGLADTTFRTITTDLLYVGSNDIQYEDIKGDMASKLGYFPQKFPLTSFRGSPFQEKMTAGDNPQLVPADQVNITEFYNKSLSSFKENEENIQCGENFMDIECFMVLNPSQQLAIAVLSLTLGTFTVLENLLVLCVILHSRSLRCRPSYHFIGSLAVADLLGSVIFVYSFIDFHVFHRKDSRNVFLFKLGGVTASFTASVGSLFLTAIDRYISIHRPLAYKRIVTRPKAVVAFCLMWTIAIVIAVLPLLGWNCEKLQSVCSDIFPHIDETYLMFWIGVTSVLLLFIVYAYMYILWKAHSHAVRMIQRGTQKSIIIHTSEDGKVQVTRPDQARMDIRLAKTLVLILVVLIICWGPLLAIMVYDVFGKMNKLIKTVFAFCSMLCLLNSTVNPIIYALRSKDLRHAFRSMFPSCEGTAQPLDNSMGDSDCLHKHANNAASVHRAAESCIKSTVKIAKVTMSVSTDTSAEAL
Procedure: (§5) The ability of compounds to act as agonists or inverse agonists at human CB2 and CB1 receptors (hCB2, hCB1, respectively) was determined by measuring changes in intracellular cAMP levels. Chinese Hamster Ovary (CHO-K1) cell lines stably expressing hCB2 (Genebank: X74328) or hCB1 (Genebank: X54937) were purchased from Euroscreen (Gosselies, Belgium).
(§6) Cell lines were grown in suspension in EX-CELL 302 CHO Serum-free medium (Sigma, cat #14324C) supplemented with 1% Fetal Bovine Serum, glutamine and non-essential amino-acids under 0.4 mg/mL G418 selection.
as §1, §2, §3, §4

hCB2 = target: T3, hCB2 (Homo sapiens, UniProt P34972); assay: cAMP assay (LANCE TR-FRET) in CHO-K1 cells stably expressing hCB2, agonist/inverse agonist; settings: intracellular cAMP, CHO-K1 hCB2 cells prestimulated with NKH-477; + agonist, − inverse agonist
T3 construct: host or cells: CHO-K1
T3 sequence (P34972 whole entry): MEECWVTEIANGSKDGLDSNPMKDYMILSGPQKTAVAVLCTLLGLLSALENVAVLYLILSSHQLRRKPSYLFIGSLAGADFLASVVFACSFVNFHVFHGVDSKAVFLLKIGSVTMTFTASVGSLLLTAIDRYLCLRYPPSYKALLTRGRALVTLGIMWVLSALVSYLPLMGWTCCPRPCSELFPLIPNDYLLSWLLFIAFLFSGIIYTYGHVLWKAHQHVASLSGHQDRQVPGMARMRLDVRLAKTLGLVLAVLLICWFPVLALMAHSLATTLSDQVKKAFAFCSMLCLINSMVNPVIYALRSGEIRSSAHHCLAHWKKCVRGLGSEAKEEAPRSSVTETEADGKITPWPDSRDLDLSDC
Procedure: as §5, §6, §1, §2, §3, §4

| SMILES | rCB2 EC50 class (rCB2) | EC50 (hCB1) [µM] | hCB2 EC50 class (hCB2) | hCB1 EC50 class (hCB1) |
| --- | --- | --- | --- | --- |
| CC(C)(C)OC(=O)N1CCc2c(cc(-c3cccc(Cl)c3)c(=O)n2CC2CCC2)C1 [Compound 35, tert-butyl 3-(3-chlorophenyl)-1-(cyclobutylmethyl)-2-oxo-1,2,7,8-tetrahydro-1,6-naphthyridine-6(5H)-carboxylate] | −B | > 10 |  |  |
| O=c1c(-c2ccc(C(F)(F)F)cc2)cc2c(n1CC1CCC1)CCCC2 [Compound 7, 1-(cyclobutylmethyl)-3-(4-(trifluoromethyl)phenyl)-5,6,7,8-tetrahydroquinolin-2(1H)-one] | +A | > 10 | +A |  |
| O=c1c(-c2ccccc2)cc2c(n1CC1CCC1)CCCC2 [Compound 1, 1-(cyclobutylmethyl)-3-phenyl-5,6,7,8-tetrahydroquinolin-2(1H)-one] | +A | > 10 | +B |  |
| COc1cccc(-c2cc3c(n(CC4CCC4)c2=O)CCCC3)c1 [Compound 16, 1-(cyclobutylmethyl)-3-(3-methoxyphenyl)-5,6,7,8-tetrahydroquinolin-2(1H)-one] | +B | > 10 | +B |  |
| O=c1c(-c2ccccc2)cc2c(n1CC1CC1)CCCC2 [Compound 2, 1-(cyclopropylmethyl)-3-phenyl-5,6,7,8-tetrahydroquinolin-2(1H)-one] | +C | > 10 | +B |  |
| O=c1c(-c2ccccc2Cl)cc2c(n1CC1CCC1)CCCC2 [Compound 18, 3-(2-chlorophenyl)-1-(cyclobutylmethyl)-5,6,7,8-tetrahydroquinolin-2(1H)-one] | +B | > 10 | +B |  |
| CS(=O)(=O)N1CCc2c(cc(-c3cccc(Cl)c3)c(=O)n2CC2CC2)C1 [Compound 48, 3-(3-chlorophenyl)-1-(cyclopropylmethyl)-6-(methylsulfonyl)-5,6,7,8-tetrahydro-1,6-naphthyridin-2(1H)-one] | +A | > 10 | +A |  |
| CC(C)C(=O)N1CCc2c(cc(-c3cccc(Cl)c3)c(=O)n2CC2CC2)C1 [Compound 51, 3-(3-chlorophenyl)-1-(cyclopropylmethyl)-6-isobutyryl-5,6,7,8-tetrahydro-1,6-naphthyridin-2(1H)-one] |  |  | +B |  |
| O=c1c(-c2ccccc2C(F)(F)F)cc2c(n1CC1CCC1)CCCC2 [Compound 20, 1-(cyclobutylmethyl)-3-(2-(trifluoromethyl)phenyl)-5,6,7,8-tetrahydroquinolin-2(1H)-one] | +B | > 10 | +B |  |
| COc1cccc(-c2cc3c(n(CC4CCC4)c2=O)CCN(C(C)=O)C3)c1 [Compound 55, 6-acetyl-1-(cyclobutylmethyl)-3-(3-methoxyphenyl)-5,6,7,8-tetrahydro-1,6-naphthyridin-2(1H)-one] | −C |  |  | −B |
| O=c1c(-c2ccc(C(F)(F)F)cc2)cc2c(n1CC1CCC1)CCN(S(=O)(=O)c1cccc(F)c1)C2 [Compound 57, 1-(cyclobutylmethyl)-6-(3-fluorophenylsulfonyl)-3-(4-(trifluoromethyl)phenyl)-5,6,7,8-tetrahydro-1,6-naphthyridin-2(1H)-one] | −B |  |  |  |
| O=c1c(-c2cccc(Cl)c2)cc2c(n1CC1CC1)CCCC2 [Compound 22, 3-(3-chlorophenyl)-1-(cyclopropylmethyl)-5,6,7,8-tetrahydroquinolin-2(1H)-one] | −B | > 10 | +B |  |
| CS(=O)(=O)N1CCc2c(cc(-c3cccc(Cl)c3)c(=O)n2CC2CCC2)C1 [Compound 41, 3-(3-chlorophenyl)-1-(cyclobutylmethyl)-6-(methylsulfonyl)-5,6,7,8-tetrahydro-1,6-naphthyridin-2(1H)-one] | +A | > 10 | +A |  |
| Cc1ccccc1Cc1cc2c(n(CC3CCC3)c1=O)CCCC2 [Compound 30, 1-(cyclobutylmethyl)-3-(2-methylbenzyl)-5,6,7,8-tetrahydroquinolin-2(1H)-one] | +A | > 10 | +A |  |
| O=c1c(-c2ccc(C(F)(F)F)cc2)cc2c(n1CC1CCC1)CCN(S(=O)(=O)c1ccccc1)C2 [Compound 56, 1-(cyclobutylmethyl)-6-(phenylsulfonyl)-3-(4-(trifluoromethyl)phenyl)-5,6,7,8-tetrahydro-1,6-naphthyridin-2(1H)-one] | −C |  |  | −B |
| O=C(c1ccno1)N1CCc2c(cc(-c3ccc(C(F)(F)F)cc3)c(=O)n2CC2CCC2)C1 [Compound 45, 1-(cyclobutylmethyl)-6-(isoxazole-5-carbonyl)-3-(4-(trifluoromethyl)phenyl)-5,6,7,8-tetrahydro-1,6-naphthyridin-2(1H)-one] | −C | > 10 |  |  |
| COc1ccncc1-c1cc2c(n(CC3CCC3)c1=O)CCCC2 [Compound 13, 1-(cyclobutylmethyl)-3-(4-methoxypyridin-3-yl)-5,6,7,8-tetrahydroquinolin-2(1H)-one] |  |  | +B |  |
| CC(C)(C)OC(=O)N1CCc2c(cc(-c3ccc(C(F)(F)F)cc3)c(=O)n2CC2CCC2)C1 [Compound 36, tert-butyl 3-(4-(trifluoromethyl)phenyl)-1-(cyclobutylmethyl)-2-oxo-1,2,7,8-tetrahydro-1,6-naphthyridine-6(5H)-carboxylate] | −C |  |  |  |
| O=c1c(C2=NN(c3ccccc3)C(c3ccco3)C2)cc2c(n1CC1CCC1)CCCC2 (stereo not drawn) [Compound 21, 1-(cyclobutylmethyl)-3-(5-(furan-2-yl)-1-phenyl-4,5-dihydro-1H-pyrazol-3-yl)-5,6,7,8-tetrahydroquinolin-2(1H)-one] |  |  | +C |  |
| Cc1noc(C)c1-c1cc2c(n(CC3CCC3)c1=O)CCCC2 [Compound 27, 1-(cyclobutylmethyl)-3-(3,5-dimethylisoxazol-4-yl)-5,6,7,8-tetrahydroquinolin-2(1H)-one] |  |  | +B |  |
| O=c1c(-c2cccc(C(F)(F)F)c2)cc2c(n1CC1CCCCC1)CCCC2 [Compound 24, 1-(cyclohexylmethyl)-3-(3-(trifluoromethyl)phenyl)-5,6,7,8-tetrahydroquinolin-2(1H)-one] |  |  | +A | +B |
| O=c1c(-c2cccc(F)c2)cc2c(n1CC1CC1)CCCC2 [Compound 4, 1-(cyclopropylmethyl)-3-(3-fluorophenyl)-5,6,7,8-tetrahydroquinolin-2(1H)-one] | +C |  |  | +C |
| O=c1c(-c2cn[nH]c2)cc2c(n1CC1CCC1)CCCC2 [Compound 28, 1-(cyclobutylmethyl)-3-(1H-pyrazol-4-yl)-5,6,7,8-tetrahydroquinolin-2(1H)-one] | −C | > 10 |  |  |
| CC(C)(C)OC(=O)N1CCc2c(cc(-c3cccnc3)c(=O)n2CC2CCC2)C1 [Compound 37, tert-butyl 1-(cyclobutylmethyl)-2-oxo-3-(pyridin-3-yl)-1,2,7,8-tetrahydro-1,6-naphthyridine-6(5H)-carboxylate] | −C |  |  |  |

— patent publication US20080161340A1, “Tetrahydroquinilinones, tetrahydronaphthyridones and derivatives thereof” (priority 2006, published 2008)
